# Experimental data reported in patent US7947726B2, “Non-steroidal ligands for the glucocorticoid receptor, and compositions thereof” (The Regents of the University of California, priority 2002, dated 2011).
# “And” between values parts separate entries of the source, which are not always exact repeats. Equal entries are not always repeated.
# How the values were obtained:
# PR = biological target: T1, PR (Homo sapiens, UniProt P06401); assay: PR activation (max fold activation); type: cell-based; conditions: Table 4
# T1 sequence (P06401 1-933): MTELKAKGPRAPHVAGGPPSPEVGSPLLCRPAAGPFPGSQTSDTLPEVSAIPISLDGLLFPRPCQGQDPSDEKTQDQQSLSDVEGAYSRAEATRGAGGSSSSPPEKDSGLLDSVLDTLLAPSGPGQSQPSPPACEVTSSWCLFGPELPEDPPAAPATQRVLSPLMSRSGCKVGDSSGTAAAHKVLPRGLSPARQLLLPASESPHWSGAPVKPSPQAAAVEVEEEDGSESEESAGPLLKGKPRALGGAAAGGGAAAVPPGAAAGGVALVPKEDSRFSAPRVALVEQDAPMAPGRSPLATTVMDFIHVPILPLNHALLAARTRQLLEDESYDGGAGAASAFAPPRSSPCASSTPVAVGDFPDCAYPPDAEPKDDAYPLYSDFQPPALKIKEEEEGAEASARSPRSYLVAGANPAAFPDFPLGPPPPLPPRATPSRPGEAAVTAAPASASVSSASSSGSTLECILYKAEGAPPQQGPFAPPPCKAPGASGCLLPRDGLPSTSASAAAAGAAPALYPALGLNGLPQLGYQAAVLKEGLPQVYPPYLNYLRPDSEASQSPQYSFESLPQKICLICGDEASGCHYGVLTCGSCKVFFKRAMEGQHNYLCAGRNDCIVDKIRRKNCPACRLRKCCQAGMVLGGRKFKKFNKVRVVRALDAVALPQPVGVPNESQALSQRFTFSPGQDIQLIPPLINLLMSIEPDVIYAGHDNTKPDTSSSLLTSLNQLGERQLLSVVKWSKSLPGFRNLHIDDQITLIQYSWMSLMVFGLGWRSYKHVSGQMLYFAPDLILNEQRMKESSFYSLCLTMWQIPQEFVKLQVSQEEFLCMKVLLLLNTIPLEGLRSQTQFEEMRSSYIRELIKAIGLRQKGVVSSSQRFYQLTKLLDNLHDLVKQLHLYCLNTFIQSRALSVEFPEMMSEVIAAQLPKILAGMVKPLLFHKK
# MR = biological target: T2, MR (Homo sapiens, UniProt P08235); assay: MR activation (max fold activation); type: cell-based; conditions: Table 4
# T2 sequence (P08235 1-984): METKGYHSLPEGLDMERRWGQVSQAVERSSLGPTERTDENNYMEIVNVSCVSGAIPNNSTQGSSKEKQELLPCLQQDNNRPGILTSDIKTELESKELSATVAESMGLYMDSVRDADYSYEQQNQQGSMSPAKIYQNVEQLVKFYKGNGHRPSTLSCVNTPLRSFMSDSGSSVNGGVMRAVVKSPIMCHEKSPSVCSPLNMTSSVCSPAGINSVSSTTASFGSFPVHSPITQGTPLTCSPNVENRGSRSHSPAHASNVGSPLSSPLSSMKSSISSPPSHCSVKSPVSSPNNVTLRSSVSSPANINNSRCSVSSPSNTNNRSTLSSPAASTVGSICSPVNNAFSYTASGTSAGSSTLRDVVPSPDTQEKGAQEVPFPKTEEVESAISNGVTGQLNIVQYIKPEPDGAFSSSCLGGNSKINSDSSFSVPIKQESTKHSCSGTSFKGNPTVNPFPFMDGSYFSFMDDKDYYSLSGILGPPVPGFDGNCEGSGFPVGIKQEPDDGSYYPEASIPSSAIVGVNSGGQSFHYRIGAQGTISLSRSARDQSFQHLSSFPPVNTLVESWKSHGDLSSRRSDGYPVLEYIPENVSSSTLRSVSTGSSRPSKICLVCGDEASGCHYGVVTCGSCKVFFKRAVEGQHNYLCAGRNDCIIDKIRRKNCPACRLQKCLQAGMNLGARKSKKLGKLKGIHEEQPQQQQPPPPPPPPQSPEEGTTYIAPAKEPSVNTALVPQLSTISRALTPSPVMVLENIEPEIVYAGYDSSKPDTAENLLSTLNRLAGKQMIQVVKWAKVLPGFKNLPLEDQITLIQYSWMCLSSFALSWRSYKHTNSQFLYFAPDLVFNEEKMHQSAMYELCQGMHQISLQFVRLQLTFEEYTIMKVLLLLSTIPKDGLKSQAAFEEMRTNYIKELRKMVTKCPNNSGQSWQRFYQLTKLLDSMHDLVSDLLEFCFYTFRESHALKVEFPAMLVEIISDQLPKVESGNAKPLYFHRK
# [1] = biological target: T3, glucocorticoid receptor (GR) (Homo sapiens, UniProt P04150); assay: Glucocorticoid Receptor Competitor Assay Kit (Panvera) ligand binding; conditions: relative binding affinity, dexamethasone = 100; for GR binding RBA (dex = 100): Table 3
# T3 construct: purchased Panvera Corp, Madison, Wis
# T3 sequence (P04150 1-777): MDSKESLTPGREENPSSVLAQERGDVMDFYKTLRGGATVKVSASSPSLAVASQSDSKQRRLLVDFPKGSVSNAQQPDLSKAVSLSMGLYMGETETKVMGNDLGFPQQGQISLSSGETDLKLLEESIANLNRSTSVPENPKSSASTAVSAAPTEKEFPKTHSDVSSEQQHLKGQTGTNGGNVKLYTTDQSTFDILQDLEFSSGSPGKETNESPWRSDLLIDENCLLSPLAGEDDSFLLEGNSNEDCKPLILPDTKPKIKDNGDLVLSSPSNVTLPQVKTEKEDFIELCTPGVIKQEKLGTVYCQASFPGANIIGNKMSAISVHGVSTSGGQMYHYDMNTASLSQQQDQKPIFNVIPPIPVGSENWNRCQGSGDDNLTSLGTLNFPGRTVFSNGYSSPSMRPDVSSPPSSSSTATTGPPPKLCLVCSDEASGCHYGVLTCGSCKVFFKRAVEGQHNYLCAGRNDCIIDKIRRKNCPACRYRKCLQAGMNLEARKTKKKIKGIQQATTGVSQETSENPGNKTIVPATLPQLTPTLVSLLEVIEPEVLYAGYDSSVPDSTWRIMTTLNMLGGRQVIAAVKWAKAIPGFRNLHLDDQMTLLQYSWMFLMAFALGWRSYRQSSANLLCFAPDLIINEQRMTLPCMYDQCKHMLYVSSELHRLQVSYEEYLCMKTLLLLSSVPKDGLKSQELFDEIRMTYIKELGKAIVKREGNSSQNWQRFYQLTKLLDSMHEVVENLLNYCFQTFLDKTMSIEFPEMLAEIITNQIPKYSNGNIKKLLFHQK
# From the text: The Glucocorticoid Receptor Competitor Assay Kit (Panvera Corp, Madison, Wis.) was used for ligand binding studies. The recommended room temperature protocol was followed for all assayed ligands.
smiles,measurement,setting,value
"Cc1cc(O)cc(C)c1C(O)C1CCCC2=Cc3c(cnn3-c3ccc(F)cc3)CC21C (centres unmarked) [Compound 227, 4-{[1-(4-Fluoro-phenyl)-4a-methyl-4,4a,5,6,7,8-hexahydro-1H-benzo[f]indazol-5-yl]-hydroxy-methyl}-3,5-dimethyl-phenol]",PR max fold activation,PR,144 ± 32
same,MR max fold activation,MR,3.2 ± 0.9
same,GR Binding RBA (dexamethasone = 100),[1]; Table 1,50
same,GR binding RBA (dex = 100),[1],103
"CC12Cc3cnn(-c4ccc(F)cc4)c3C=C1CCCC2C(O)c1cccc2[nH]ccc12 (centres unmarked) [Compound 237, [1-(4-Fluoro-phenyl)-4a-methyl-4,4a,5,6,7,8-hexahydro-1H-benzo[f]indazol-5-yl]-(1H-indol-4-yl)-methanol]",MR max fold activation,MR,5.0 ± 1.5
same,GR binding RBA (dex = 100),[1],110
"CC12Cc3cnn(-c4ccc(F)cc4)c3C=C1CCCC2C(O)c1ccsc1 (centres unmarked) [Compound 238, [1-(4-Fluoro-phenyl)-4a-methyl-4,4a-5,6,7,8-hexahydro-1H-benzo[f]indazol-5-yl]-thiophen-3-yl-methanol]",PR max fold activation,PR,155 ± 32 and 109 ± 10
same,MR max fold activation,MR,6.2 ± 0.9
